# Laboratory results as given in patent US11492325B2, “Compounds as inhibitors of sodium channels” (Human BioMolecular Research Institute, priority 2016, dated 2022).
# Like-named read-outs stand apart in the source and are kept apart here.
# Assays:
# [1] = Metabolic stability in human liver microsomes; format: in vitro ADME
# In short: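 Liver microsomes (rat, mouse, dog or human; 0.4-0.5 mg protein) incubated with 50 μM compound in 100 mM potassium phosphate pH 7.4 with NADPH-generating system and 3 mM MgCl2. Parent loss followed by HPLC-UV; half-life and kapp from normalized peak area versus time.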
# [2] = Metabolism in human hepatic S9
# [3] = Metabolism in mouse hepatic S9; conditions: for Mouse liver S-9 (nmol/incub): 0.4 mg protein/incubation, 30 mins, 37° C., nmol metabolism/incubation
# Procedure: (§1) A typical incubation contained rat, mouse, dog or human liver microsomes (0.4-0.5 mg of protein), 100 mM potassium phosphate buffer (pH7.4), 50 μM test compound, an NADPH-generating system consisting of 0.5 mM NADP^+, 0.5 mM glucose-6-phosphate, 1 IU/mL glucose-6-phosphate dehydrogenase, 1 mg/mL diethylenetriaminepentaaceticacid (DETAPAC), and 3 mM MgCl2 in a final incubation volume of 0.25 mL. […] After centrifugation at 3000 rpm for 5 min, the organic fraction was collected, the solvent was removed with a stream of argon and the residue was reconstituted in 125 μL of MeOH and 125 μL H2O, mixed thoroughly, centrifuged at 13,000 rpm for 5 min and analyzed by high performance liquid chromatography. Samples were run on a Hitachi D-7000 HPLC system using a L-7100 analytical pump, L-7400 UV-Visible variable wavelength detector, and L-7600 automatic sample injector. […] Disappearance of the analyte was monitored over time. A plot of the area under the curve for the normalized analyte versus time afforded the half-life values and kapp.
# (§2) Microsomes contain CYPs and FMO metabolic enzymes. S9 contains soluble enzymes (i.e., aldehyde oxidase, MAO, etc.).
# CYP3A5 = CYP3A5 (Homo sapiens, UniProt P20815); assay: Metabolism with highly purified CYP3A5 (HPLC)
# Chain of CYP3A5 (P20815 whole entry): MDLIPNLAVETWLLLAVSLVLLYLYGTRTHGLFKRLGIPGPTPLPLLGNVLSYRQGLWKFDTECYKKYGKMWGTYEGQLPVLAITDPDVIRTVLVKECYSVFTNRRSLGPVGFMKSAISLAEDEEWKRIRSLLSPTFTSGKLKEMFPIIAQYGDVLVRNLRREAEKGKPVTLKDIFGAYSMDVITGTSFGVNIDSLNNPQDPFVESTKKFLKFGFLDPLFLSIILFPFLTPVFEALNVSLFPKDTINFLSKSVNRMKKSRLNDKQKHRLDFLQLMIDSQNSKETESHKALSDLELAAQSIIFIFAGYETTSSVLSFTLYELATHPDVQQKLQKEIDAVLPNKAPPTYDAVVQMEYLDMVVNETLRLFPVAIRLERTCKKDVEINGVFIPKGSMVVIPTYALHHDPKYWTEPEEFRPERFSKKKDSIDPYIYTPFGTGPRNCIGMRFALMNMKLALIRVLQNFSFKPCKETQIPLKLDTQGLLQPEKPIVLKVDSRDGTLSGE
# Procedure: as §1
# (§3) Accordingly, we examined the metabolism of leads with highly purified CYPs with an HPLC method (Example 8).
# CYP2D6 = CYP2D6 (Homo sapiens, UniProt P10635); assay: Metabolism with highly purified CYP2D6 (HPLC)
# Chain of CYP2D6 (P10635 whole entry): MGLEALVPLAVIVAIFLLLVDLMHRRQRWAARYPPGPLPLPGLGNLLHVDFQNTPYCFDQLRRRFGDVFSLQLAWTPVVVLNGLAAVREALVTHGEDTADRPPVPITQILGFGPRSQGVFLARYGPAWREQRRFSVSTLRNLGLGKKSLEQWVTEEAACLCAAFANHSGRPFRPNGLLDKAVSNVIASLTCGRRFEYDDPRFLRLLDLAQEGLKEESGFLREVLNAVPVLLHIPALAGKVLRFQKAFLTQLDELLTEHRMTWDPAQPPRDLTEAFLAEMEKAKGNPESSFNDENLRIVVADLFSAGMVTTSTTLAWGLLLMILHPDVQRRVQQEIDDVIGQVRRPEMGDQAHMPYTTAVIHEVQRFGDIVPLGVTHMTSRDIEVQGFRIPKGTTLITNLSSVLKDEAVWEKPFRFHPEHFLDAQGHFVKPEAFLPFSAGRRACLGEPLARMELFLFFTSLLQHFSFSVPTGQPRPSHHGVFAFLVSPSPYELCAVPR
# Procedure: as §1, §3
# FMO = assay: Metabolism by FMO
# CYP3A4 [4] = target: T1, CYP3A4 (Homo sapiens, UniProt P08684); assay: Metabolism with highly purified CYP3A4 (HPLC); conditions: for Human CYP3A4 (nmol/incub): 3 pmol enzyme/incubation, 30 mins, 37° C., nmol metabolism/incubation
# T1 sequence (P08684 whole entry): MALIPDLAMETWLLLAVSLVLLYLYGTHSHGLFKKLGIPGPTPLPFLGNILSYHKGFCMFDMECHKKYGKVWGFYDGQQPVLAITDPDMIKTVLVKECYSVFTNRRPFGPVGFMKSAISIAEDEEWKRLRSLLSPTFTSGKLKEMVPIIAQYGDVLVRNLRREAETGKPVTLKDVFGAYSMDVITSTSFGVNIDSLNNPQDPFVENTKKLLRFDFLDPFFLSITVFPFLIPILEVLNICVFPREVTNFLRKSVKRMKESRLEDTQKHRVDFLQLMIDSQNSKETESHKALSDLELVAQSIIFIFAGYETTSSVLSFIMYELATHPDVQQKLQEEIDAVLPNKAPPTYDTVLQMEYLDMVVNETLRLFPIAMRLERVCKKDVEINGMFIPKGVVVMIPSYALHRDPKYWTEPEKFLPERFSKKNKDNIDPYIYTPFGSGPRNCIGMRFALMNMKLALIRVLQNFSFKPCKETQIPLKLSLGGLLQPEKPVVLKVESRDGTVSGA
# Human FMO1 = target: T2, Human FMO1 (Homo sapiens, UniProt Q01740); assay: Metabolism with human FMO1 (nmol metabolism/incubation); conditions: 15 μg enzyme/incubation; 30 mins, 37° C.; nmol metabolism/incubation
# T2 sequence (Q01740 1-532): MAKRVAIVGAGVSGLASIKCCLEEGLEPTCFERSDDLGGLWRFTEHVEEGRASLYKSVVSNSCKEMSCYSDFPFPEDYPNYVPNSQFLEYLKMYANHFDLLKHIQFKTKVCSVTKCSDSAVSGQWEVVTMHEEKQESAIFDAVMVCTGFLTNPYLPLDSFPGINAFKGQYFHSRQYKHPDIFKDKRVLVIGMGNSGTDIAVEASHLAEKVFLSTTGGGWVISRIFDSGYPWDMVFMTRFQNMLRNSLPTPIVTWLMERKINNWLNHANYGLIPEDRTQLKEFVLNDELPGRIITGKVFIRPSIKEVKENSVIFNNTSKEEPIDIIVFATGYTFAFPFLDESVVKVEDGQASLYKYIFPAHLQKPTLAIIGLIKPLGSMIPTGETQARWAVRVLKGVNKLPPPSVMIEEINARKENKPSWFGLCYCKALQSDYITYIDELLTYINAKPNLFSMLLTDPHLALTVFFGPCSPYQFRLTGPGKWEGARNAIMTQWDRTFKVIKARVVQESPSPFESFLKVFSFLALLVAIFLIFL
# Human FMO3 = Human FMO3 (Homo sapiens, UniProt P31513); conditions: 15 μg enzyme/incubation; 30 mins, 37° C.; nmol metabolism/incubation
# Chain of Human FMO3 (P31513 whole entry): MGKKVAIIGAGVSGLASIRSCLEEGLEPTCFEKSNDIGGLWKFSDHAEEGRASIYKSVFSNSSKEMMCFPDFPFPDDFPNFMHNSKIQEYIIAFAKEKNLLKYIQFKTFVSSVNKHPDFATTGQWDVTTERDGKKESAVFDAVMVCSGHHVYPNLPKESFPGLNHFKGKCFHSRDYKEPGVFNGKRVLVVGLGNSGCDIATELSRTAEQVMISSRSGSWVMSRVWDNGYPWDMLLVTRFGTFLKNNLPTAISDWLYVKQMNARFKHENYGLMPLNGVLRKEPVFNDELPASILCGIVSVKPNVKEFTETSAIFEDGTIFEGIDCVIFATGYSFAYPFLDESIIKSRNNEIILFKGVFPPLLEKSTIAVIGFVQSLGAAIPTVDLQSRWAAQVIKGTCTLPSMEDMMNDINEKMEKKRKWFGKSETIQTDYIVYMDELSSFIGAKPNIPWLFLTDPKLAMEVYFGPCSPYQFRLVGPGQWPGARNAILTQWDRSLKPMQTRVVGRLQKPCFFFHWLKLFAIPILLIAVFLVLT
# [5] = Metabolic stability in dog liver microsomes; format: in vitro ADME; conditions: for half-life at 50 μM: dog, liver microsomes, pH 7.4, NADPH-generating system, 37° C., read-out: Liver Microsomes t1/2 Dog
# Procedure: as §1
# [6] = Metabolic stability in mouse liver microsomes; format: in vitro ADME; conditions: for half-life at 50 μM: mouse, liver microsomes, pH 7.4, NADPH-generating system, 37° C., read-out: Liver Microsomes t1/2 Mouse
# Procedure: as §1
# [7] = Metabolic stability in rat liver microsomes; format: in vitro ADME; conditions: for half-life at 50 μM: rat, liver microsomes, pH 7.4, NADPH-generating system, 37° C., read-out: Liver Microsomes t1/2 Rat
# Procedure: as §1
# Male BALBc mice = conditions: mice, 100 mg/kg
# From the text: Male BALBc mice (20-22 g) were used throughout these studies. The animals were maintained in a temperature-controlled room with 12-hr periods of light and darkness and had continuous access to water and animal food. […] Groups contained 2-4 animals.
# [8] = test system: isolated perfused aged rat heart exposed to hydrogen peroxide; assay: Aged rat heart perfusion model of arrhythmia (H2O2, ex vivo); conditions: 10 μM, 30 min after perfusion, continuous H2O2 (0.1 mM)
# Procedure: FIG. 1. Initiation of Early After Depolarizations-Mediated Ectopic Ventricular Beats and Ventricular Fibrillation in an Isolated Perfused Aged Rat Heart Exposed to hydrogen peroxide.
# Conduction velocity (CV), action potential duration (APD) and responsiveness to drugs was measured in ex-vivo rat heart preparations (FIG. 1). We chose a rat heart model to test for the effect of (R)-82 (i.e., (R)-Dd, Example 4) to decrease arrhythmias because CV and APD are preserved in buffer-perfused rat hearts up to […]. In contrast, in this model, continuous presence (perfusion) of H2O2 (0.1 mM) produces early after depolarizations (EADs) and ectopic ventricular beats 6 min after exposure that degenerates to ventricular tachycardia (VT) and ventricular fibrillation (VF) after 12 min (FIG. 1). Left untreated, the heart would die within 45 mins. […] The conclusion is that (R)-82 is more efficacious than the currently used standard of care.
# [9] = test system: normal human induced pluripotent stem cell (hiPSC) cardiomyocyte; conditions: for WT-Prolong. Dose: 'No AP' wraps to 'No AP Prolong.'; for WT-Cess. Dose / WT-EC50 (μM)-Prolong.: deuterated vs non-deuterated; for WT-EC50 (μM)-Prolong.: 'No AP' wraps to 'No AP prolongation'
# [10] = test system: cardiomyocytes derived from hiPSCs from a LQTS3 patient; conditions: for LQT-EC50 (μM)-Shortening / LQT-Fold Shortening / LQT-Shortening Dose: 'No AP' wraps to 'No AP shortening'; for LQT-Cess. Dose: deuterated vs non-deuterated; for action potential shortening compared to unlabeled compound: deuterium-labeled analogs
# CYP3A4 [11] = target: T1, CYP3A4; conditions: 50 min
# [12] = Metabolism in rat hepatic S9; format: in vitro ADME; conditions: 0.5 mg of protein
# Procedure: as §1, §2
# [13] = Metabolism in dog hepatic S9; format: in vitro ADME; conditions: 0.5 mg of protein
# Procedure: as §1, §2
smiles,measurement,setting,value
"Cc1cccc(C)c1OCC(C)N (racemic) [Mexiletine, reference compound]",metabolism in human liver microsomes judged by HPLC,[1],not metabolized very extensively
same,metabolism in human liver S-9 judged by HPLC,[2],not metabolized very extensively
same,Mouse liver S-9 (nmol/incub),[3],5.2 nmol/incub
same,"nmols metabolized, CYP3A5",CYP3A5; 50 min incubation,34.2 nmols
same,"pmols product/μg CYP/min, CYP3A5",CYP3A5; 50 min incubation,48.8 pmols product/μg CYP/min
same,"nmols metabolized, CYP2D6",CYP2D6; 50 min incubation,4.04 nmols
same,"pmols product/μg CYP/min, CYP2D6",CYP2D6; 50 min incubation,6.0 pmols product/μg CYP/min
same,metabolism by FMO,FMO,metabolized by FMO
same,Human CYP3A4 (nmol/incub),CYP3A4 [4],3.0 nmol/incub
same,"nmols metabolized, CYP3A4",CYP3A4 [4]; 50 min incubation,32.4 nmols
same,"pmols product/μg CYP/min, CYP3A4",CYP3A4 [4]; 50 min incubation,46.2 pmols product/μg CYP/min
same,Human FMO1 (nmol/incub),Human FMO1,6.7 nmol/incub
Cl.[2H]C(N)(COc1ccccc1C)c1ccccc1 (centres unmarked) [Compound 104c],Mouse liver S-9 (nmol/incub),[3],13.2 nmol/incub
same,Human FMO3 (nmol/incub),Human FMO3,1.3 nmol/incub
same,Human CYP3A4 (nmol/incub),CYP3A4 [4],1.0 nmol/incub
same,Human FMO1 (nmol/incub),Human FMO1,1.4 nmol/incub
NC(COc1ccccc1C(F)(F)F)c1ccccc1 (centres unmarked) [drawing 304],"parent after 60 min, Human liver microsomes (Stable)",[1],Stable >95% parent after 60 min
same,"parent after 60 min, Dog liver microsomes (Stable)",[5]; 60 min,Stable >95% parent after 60 min
same,half-life at 50 μM,[6],3.27 h
same,half-life at 50 μM,[7],3.3 h
Cc1cc(C)cc(OCC(N)c2ccccc2)c1 (centres unmarked) [drawing 301],half-life at 50 μM,"[1]; human, liver microsomes, pH 7.4, 50 μM, NADPH-generating system, 37° C., read-out: Liver Microsomes t1/2 Human",1.73 h
same,half-life at 50 μM,[5],3.07 h
same,half-life at 50 μM,[6],0.983 h
same,half-life at 50 μM,[7],0.867 h
Cl.NC(COc1ccccc1C(F)(F)F)c1ccccc1 (stereo in doubt) [(R)-82],Liver Microsomes T1/2,"[1]; human, microsomes",2.27 h
same,"Liver S-9, remaining after 1 hr","[2]; human, s9, 1 h",>95% after 1 hr
same,Behavior Effect (R)-enantiomer,Male BALBc mice,No detectable effect
same,behavioral effects at 100 mg/kg,Male BALBc mice; enantiomers,no apparent behavioral effects
same,resolution of arrhythmias,[8],complete resolution of all forms of arrhythmias to normal sinus rhythm
Cl.[2H]C(N)(COc1cc(C(F)(F)F)cc(C(F)(F)F)c1)c1ccccc1 (centres unmarked) [Compound 104a],WT-Prolong. Dose,[9],No AP
same,WT-Cess. Dose,[9],66 µM
same,WT-EC50 (μM)-Prolong.,[9],No AP
same,LQT-EC50 (μM)-Shortening,[10],No AP
same,LQT-Fold Shortening,[10],1.274
same,LQT-Shortening Dose,[10],22 µM
same,LQT-Cess. Dose,[10],133 µM
same,action potential shortening compared to unlabeled compound,[10],equal to or greater action potential shortening
same,Human FMO3 (nmol/incub),Human FMO3,0.6 nmol/incub
same,Human CYP3A4 (nmol/incub),CYP3A4 [4],1.1 nmol/incub
same,Human FMO1 (nmol/incub),Human FMO1,0.8 nmol/incub
NC(COc1cc(C(F)(F)F)cc(C(F)(F)F)c1)c1ccccc1 (centres unmarked) [drawing 302],"parent after 60 min, Human liver microsomes (Stable)",[1],Stable >95% parent after 60 min
same,half-life at 50 μM,[5],1.93 h
same,"parent after 60 min, Mouse liver microsomes (Stable)",[6]; 60 min,Stable >95% parent after 60 min
same,"parent after 60 min, Rat liver microsomes (Stable)",[7]; 60 min,Stable >95% parent after 60 min
"Cl.NC(COc1ccccc1C(F)(F)F)c1ccccc1 (racemic) [Compound 82, 1-phenyl-2-(2-(trifluoromethyl)phenoxy)ethan-1-amine]","nmols metabolized, CYP3A5","CYP3A5; human, 50 min",29.9 nmols
same,"nmols/μg CYP, CYP3A5","CYP3A5; human, 50 min",2.13 nmols/μg CYP
same,"pmols product/μg CYP/min, CYP3A5","CYP3A5; human, 50 min",42.6 pmols product/μg CYP/min
same,"nmols metabolized, CYP2D6","CYP2D6; human, 50 min",29.1 nmols
same,"nmols/μg CYP, CYP2D6","CYP2D6; human, 50 min",2.18 nmols/μg CYP
same,"pmols product/μg CYP/min, CYP2D6","CYP2D6; human, 50 min",43.6 pmols product/μg CYP/min
same,"nmols metabolized, CYP3A4",CYP3A4 [11],10.9 nmols
same,"nmols/μg CYP, CYP3A4",CYP3A4 [11],0.77 nmols/μg CYP
same,"pmols product/μg CYP/min, CYP3A4",CYP3A4 [11],15.4 pmols product/μg CYP/min
Cl.[2H]C(N)(COc1ccccc1C(F)(F)F)c1ccccc1 (centres unmarked) [Compound 104d],WT-Prolong. Dose,[9],No AP
same,WT-Cess. Dose,[9],22 µM
same,WT-EC50 (μM)-Prolong.,[9],No AP
same,LQT-EC50 (μM)-Shortening,[10],shortens)
same,LQT-Fold Shortening,[10],1.395
same,LQT-Shortening Dose,[10],22 µM
same,LQT-Cess. Dose,[10],66 µM
same,Human FMO3 (nmol/incub),Human FMO3,0.7 nmol/incub
same,Human CYP3A4 (nmol/incub),CYP3A4 [4],0.3 nmol/incub
same,Human FMO1 (nmol/incub),Human FMO1,0.3 nmol/incub
Cc1cc(C)cc(OCC(N)c2ccccc2)c1 (centres unmarked) [drawing 306],% Metabolism Human S9,[2]; 0.5 mg of protein,39.2 ± 8.4%
same,% Metabolism Rat S9,[12],45.0 ± 14.5%
same,% Metabolism Dog S9,[13],35.8 ± 7.0%
same,% Metabolism Mouse S9,[3]; 0.5 mg of protein,13.6 ± 5.0%
Cl.[2H]C(N)(COc1cc(C)cc(C)c1)c1ccccc1 (centres unmarked) [Compound 104b],WT-Prolong. Dose,[9],No AP
same,WT-Cess. Dose,[9],22 µM
same,WT-EC50 (μM)-Prolong.,[9],No AP
same,LQT-Fold Shortening,[10],1.280
same,LQT-Shortening Dose,[10],2.5 µM
same,LQT-Cess. Dose,[10],22 µM
same,action potential shortening compared to unlabeled compound,[10],equal to or greater action potential shortening
same,Human FMO3 (nmol/incub),Human FMO3,0.05 nmol/incub
same,Human CYP3A4 (nmol/incub),CYP3A4 [4],0.3 nmol/incub
same,Human FMO1 (nmol/incub),Human FMO1,1.0 nmol/incub
